This note sets out measurements from paper PMC8760490, “Discovery of novel furanylbenzamide inhibitors that target oncogenic tyrosine phosphatase SHP2 in leukemia cells” (The Journal of Biological Chemistry, 2021).

Test [1] has as its target T1, SHP2 catalytic domain (SHP2cat; residues 248–527) (Homo sapiens, UniProt Q06124).
T1 construct: the SHP2 catalytic domain (SHP2cat; residues 248–527); made in house
T1 sequence (Q06124 248-527): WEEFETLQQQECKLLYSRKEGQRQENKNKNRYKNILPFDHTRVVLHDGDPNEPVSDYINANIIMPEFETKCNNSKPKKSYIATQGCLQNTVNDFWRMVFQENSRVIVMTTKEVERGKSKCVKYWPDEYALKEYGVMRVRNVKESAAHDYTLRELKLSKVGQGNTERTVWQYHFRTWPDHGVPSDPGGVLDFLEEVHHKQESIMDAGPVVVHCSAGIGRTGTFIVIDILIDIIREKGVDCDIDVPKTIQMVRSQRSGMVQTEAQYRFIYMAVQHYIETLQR
Briefly: DiFMUP fluorescence phosphatase inhibition assay, SHP2cat. The test is classed as biochemical. An excerpt:
To test the synthesized compounds for their potential to inhibit SHP2 activity, a fluorescence intensity-based assay using 6,8-difluoro-4-methylumbelliferyl phosphate (DiFMUP) as the substrate was adapted for three recombinant SHP2 constructs: (1) the SHP2 catalytic domain (SHP2cat; residues 248–527), (2) the full-length SHP2-E76K oncogenic mutant, and (3) the full-length SHP2 WT (SHP2-WT). The recombinant SHP2 proteins were expressed and purified as described previously ([36]). A dually phosphorylated peptide derived from the insulin receptor substrate 1 (IRS-1) served as a surrogate binding protein and was used to activate SHP2-WT ([30], [36]). […] Michaelis–Menten experiments to determine the DiFMUP Michaelis–Menten constant (Km) for each SHP2 construct were performed as described previously ([36]) and yielded the following values: SHP2-WT, Km = 60 μM; SHP2-E76K, Km = 20 μM; and SHP2cat, Km = 20 μM. Relative maximum rates (Vmax) of the DiFMUP reactions expressed as relative fluorescence units per minute (RFU/min) were as follows: SHP2-WT, Vmax = 871 RFU/min; SHP2-E76K, Vmax = 2730 RFU/min; and SHP2cat, Vmax = 2912 RFU/min. IC50 values for each compound were determined from initial rates in 10-point dose–response assays using DiFMUP at a concentration corresponding to its Km value for the respective SHP2 construct. […] Replacements for the benzothiophenone were explored using analog #10.
Recombinant human full-length SHP2 (1–594) WT and E76K mutants, as well as the SHP2cat (248–527), were expressed and purified as described before ([36], [41]). Recombinant human PTP1B (1–300) and the codon-optimized STEP (280–566) catalytic domains were cloned into PET-15b and expressed as N-His-tagged fusion proteins. For expression, transformed BL21(DE3) cells were grown and induced similar as described for SHP2. Collected cells were resuspended in lysis buffer (25 mM Tris, pH 7.5, 300 mM NaCl, 50 mM imidazole, and 10% glycerol) with 100 mg/l RNaseA and were lysed with two passages using a microfluidizer. The lysate was clarified by centrifugation at 15,000g for 50 min and applied to nickel–nitrilotriacetic acid resin. The column resin was washed, and the PTP1B or STEP protein was eluted in lysis buffer at 300 mM imidazole. The PTP1B or STEP protein was further purified by S75 size-exclusion chromatography in 50 mM Tris, pH 7.5, 50 mM NaCl. The eluted peak fractions were supplemented with tris(2-carboxyethyl)phosphine to 10 mM, concentrated by ultrafiltration, and stored at −80 °C. The purified yield of PTP1B was 33 mg/l cell culture; the yield of STEP was 16 mg/l cell culture.
SHP2 inhibitors were tested at RT in a 384-well plate format standard phosphatase fluorescence intensity assay using DiFMUP (Invitrogen/Thermo Fisher Scientific) as a substrate and a total reaction volume of 25 μl. SHP2 inhibitors or vehicle (DMSO) were spotted in triplicate into a black Greiner FLUOTRAC 200 384-well microplate (catalog no.: 781076; Greiner) for a 10-point dose–response assay using an Echo 555 Liquid Handler (Labcyte, Inc). PTP working solutions were prepared at a 0.625 nM concentration (for a final concentration of 0.5 nM) in buffer containing 50 mM Bis–Tris, pH 6.0, 50 mM NaCl, 5 mM DTT, and 0.01% Tween-20. Prior to the assay, a dually phosphorylated IRS-1 peptide (625 nM [500 nM final] ([30])) was added to full-length WT SHP2 working solutions and incubated for 20 min. DiFMUP working solutions at 5× final concentration were prepared in 50 mM Bis–Tris, pH 6.0, 50 mM NaCl, and 0.01% Tween-20. About 20 μl of PTP working solution was dispensed into the microplate and incubated with inhibitor for 20 min at RT. […] The reaction was initiated by addition of 5 μl DiFMUP working solutions. Fluorescence intensity was measured in kinetic mode (every minute for 7 or 10 min) using a Tecan Spark Multimode Microplate Reader (Tecan) with an excitation wavelength of 360 nm and an emission wavelength of 460 nm. […]

The test system of test [2] is KYSE-520 esophageal cancer cells. Briefly: Cell viability (CellTiter-Glo), KYSE-520. As to conditions: for effect on KYSE-520 cell growth: various concentrations, 3 days. It is filed as cell-based. The method, then: Inhibition of SHP2 has been reported to inhibit the growth of cancer cells including Kasumi-1 acute myeloid leukemia (AML) and KYSE-520 esophageal cancer cells ([30]). […] Thus, we treated two TNBC cell lines, BT-549 and MDA-MB-468, with SBI-4668 or the SHP2 allosteric inhibitor SHP099 at various concentrations and determined cell viability after 72 h, compared with the vehicle control (Fig. 4C). […] Next, we performed an 11-day colony formation assay with TNBC cells treated with SBI-4668 or SHP099 at 5, 10, or 20 μM (Fig. 4D).
Viability of AML and esophageal carcinoma cells was assessed using the ATP-depletion assay CellTiter-Glo (Promega). Cells were harvested at 1 × 10^6/ml to 2 × 10^6 cells/ml with cell numbers determined by trypan blue using the Countess Cell counter (Thermo Scientific) and resuspended in culture media. About 3000 cells (in 20 μl) were seeded in a 384-well format white and clear-bottom microplate (catalog no.: 781098; Greiner) spotted with test compound or vehicle control (DMSO) using an Echo 555 Liquid Handler. Cells were incubated for 3 days, before 10 μl of CellTiter-Glo reagent mix was added to each well and incubated for 10 min at RT. Luminescence was read on a Tecan Spark Multimode Microplate Reader, and data were analyzed using GraphPad Prism software.
(In general: In ATP-based viability assays light output follows the ATP content of the culture.)

[3] abbreviates: DiFMUP at Km (20 μM), pH 6.0, read-out: SHP2cat, IC50.
Setting [4] is: catalytic domain, DiFMUP at Km, read-out: SHP2 IC50 (Table 2).

Each structure is given as a SMILES string. Where two headings read alike, the source gives them in different places.

Consider `Nc1ccc(NC(=O)c2cc(-c3ccc(/C=C4\Sc5ccccc5C4=O)o3)ccc2O)cc1` [SBI-2130, (Z)-N-(4-Aminophenyl)-2-hydroxy-5-(5-((3-oxobenzo[b]thiophen-2(3H)-ylidene)methyl)furan-2-yl)benzamide], for which the IC50 in test [1] (setting [3]) and in test [1] (setting [4]) was 220 nM each time. Also, the “effect on KYSE-520 cell growth” value in test [2] is recorded as “dose-dependently inhibited cancer cell growth”.

Take `O=C1CCCC1=Cc1ccc(-c2ccc(O)c(C(=O)Nc3ccccc3)c2)o1` [SBI-3192, 2-Hydroxy-5-(5-((2-oxocyclopentylidene)methyl)furan-2-yl)-N-phenylbenzamide]: the IC50 in test [1] (setting [3]) and in test [1] (setting [4]) was 1100 nM throughout.

For `N#Cc1cc(-c2ccc(/C=C3\Sc4ccccc4C3=O)o2)ccc1O` [SBI-3404, (Z)-2-Hydroxy-5-(5-((3-oxobenzo[b]thiophen-2(3H)-ylidene)methyl)furan-2-yl)benzonitrile], the IC50 in test [1] (setting [3]) and in test [1] (setting [4]) was 1400 nM in each case. The “effect on KYSE-520 cell growth” value in test [2] is reported as “dose-dependently inhibited cancer cell growth”.

For `O=C1/C(=C/c2ccc(-c3ccc(O)c(-c4nn[nH]n4)c3)o2)Sc2ccccc21` [SBI-3405, (Z)-2-((5-(4-Hydroxy-3-(2H-tetrazol-5-yl)phenyl)furan-2-yl)methylene)benzo[b]thiophen-3(2H)-one], the IC50 in test [1] (setting [3]) and in test [1] (setting [4]) was 2000 nM each time.

For the molecule `O=C(Nc1ccccc1)c1cc(-c2ccc(/C=C3\Sc4ccccc4C3=O)o2)ccc1O` [SBI-4668, (Z)-2-Hydroxy-5-(5-((3-oxobenzo[b]thiophen-2(3H)-ylidene)methyl)furan-2-yl)-N-phenylbenzamide], the IC50 came to 730 nM in test [1] (setting [3]); 730 nM in test [1] (setting [4]); 5400 nM in test [2] (Homo sapiens, KYSE-520, 72 h, 3 days in culture). Moreover, the “effect on KYSE-520 cell growth” value in test [2] is “dose-dependently inhibited cancer cell growth”.
